How the values were obtained:
[1] = system: LPS-stimulated BMDM; experiment: Pro-inflammatory cytokine levels by ELISA in LPS-stimulated BMDM; format: cell-based, murine; settings: LPS 100 ng/mL, 10 μM NAD(H) equivalent, 12 h
Excerpt: Measurement of inflammation related cytokine levels. […] Twelve hours after the treatment, the cell culture media were collected to analyze the cytokine production by ELISA kits supplied by R&D Systems according to the manufacturer's instructions. Data were collected by monitoring the difference between the absorbance at 450 nm and 570 nm using the Microplate Reader.

[2] = system: CLP-induced sepsis with P. aeruginosa secondary infection; experiment: Cecal ligation and puncture (CLP) and P. aeruginosa secondary infection model; format: in vivo, mice
Excerpt: Cecal ligation and puncture (CLP) and P. aeruginosa secondary infection model. Mice were anesthetized with isoflurane. Thereafter, the abdominal cavity was opened with a midline incision to expose the cecum. The distal 50% of the cecum was ligated with a 6-0 silk suture and perforated with a 19-gauge needle twice. Subsequently, a small amount of feces was squeezed out and spread around the cecum. The cecum was relocated into the peritoneal cavity, and the laparotomy site was closed, followed by subcutaneous injection of 1 mL resuscitative prewarmed sterile saline (Dawulieti, J. et al. Treatment of severe sepsis with nanoparticulate cell-free DNA scavengers. Science advances 6, eaay7148 (2020)). This level of injury was utilized to create a prolonged infection that impaired immune system and induced approximate 30% mortality. Two injections of free NAD^+ (20 mg/kg per injection), LP-CaP, or NAD^+-LP-CaP (an equivalent dose of NAD^+20 mg/kg per injection) were given through tail vein 6 h and 24 h after the surgery. […] Mice survival and body weight were recorded over time and presented using Kaplan—Meier curves (n=14). […] The CLP mice were monitored twice daily and their conditions were evaluated using a sepsis scoring sheet. […]

## NC(=O)C1=CN([C@@H]2O[C@H](COP(=O)([O-])OP(=O)([O-])OC[C@H]3O[C@@H](n4cnc5c(N)ncnc54)[C@H](O)[C@@H]3O)[C@@H](O)[C@H]2O)C=CC1.[Na+].[Na+] [NADH, β-Nicotinamide adenine dinucleotide, reduced disodium salt]
[1]
  production of IL-6: did not affect
  production of TNF-α: did not affect

## NC(=O)C1=CN([C@@H]2O[C@H](COP(=O)(O)OP(=O)(O)OC[C@H]3O[C@@H](n4cnc5c(N)ncnc54)[C@H](O)[C@@H]3O)[C@@H](O)[C@H]2O)C=CC1 [free NAD^+, β-Nicotinamide adenine dinucleotide]
[2]
  survival rate: did not improve the survival rate
[1]
  production of IL-6: did not affect
  production of TNF-α: did not affect

Source: patent US20230032473A1, “NAD(H) NANOPARTICLES AND METHODS OF USE” (Wisconsin Alumni Research Foundation, priority 2021, published 2023)
